#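 In this assay, cells in 96-well plates receive the compound at five concentrations for 48 hours. Endpoints are linearly interpolated between the surrounding concentrations. Here, GI50 denotes the concentration required for 50% inhibition of growth. TGI denotes the concentration required for complete inhibition of growth.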
# Columns and labels:
# Experiment in all cases: DTP human tumour cell line panel, 48 h
# HS 578T breast = system: HS 578T breast
# SNB-19 CNS = system: SNB-19 CNS
# SF-268 CNS = system: SF-268 CNS
# OVCAR-3 ovarian = system: OVCAR-3 ovarian
# OVCAR-4 ovarian = system: OVCAR-4 ovarian
# A498 renal = system: A498 renal
# MOLT-4 leukemia = system: MOLT-4 leukemia
# HCT-15 colon = system: HCT-15 colon
# LOX IMVI melanoma = system: LOX IMVI melanoma
# A549 NSCLC = system: A549 NSCLC
# 786-0 renal = system: 786-0 renal
# HOP-92 NSCLC = system: HOP-92 NSCLC
# SK-MEL-28 melanoma = system: SK-MEL-28 melanoma
# HL-60(TB) leukemia = system: HL-60(TB) leukemia
# T-47D breast = system: T-47D breast
# SF-295 CNS = system: SF-295 CNS
# SK-MEL-2 melanoma = system: SK-MEL-2 melanoma
# MDA-MB-231 breast = system: MDA-MB-231 breast
# NCI-H460 lung = system: NCI-H460 lung
# DU-145 prostate = system: DU-145 prostate
# NCI-H522 lung = system: NCI-H522 lung
# MALME-3M melanoma = system: MALME-3M melanoma
# SK-OV-3 ovarian = system: SK-OV-3 ovarian
# MDA-MB-435 = system: MDA-MB-435
# NCI-H226 lung = system: NCI-H226 lung
# HT29 colon = system: HT29 colon
# SF-539 CNS = system: SF-539 CNS
# NCI/ADR-RES ovarian = system: NCI/ADR-RES ovarian
# SN12C renal = system: SN12C renal
# RXF 393 renal = system: RXF 393 renal
# KM12 colon = system: KM12 colon
# HOP-62 NSCLC = system: HOP-62 NSCLC
# SR leukemia = system: SR leukemia
# PC-3 prostate = system: PC-3 prostate
# BT-549 breast = system: BT-549 breast
# NCI-H23 lung = system: NCI-H23 lung
# ACHN renal = system: ACHN renal
# OVCAR-5 ovarian = system: OVCAR-5 ovarian
# U251 CNS = system: U251 CNS
# HCT-116 colon = system: HCT-116 colon
# K-562 leukemia = system: K-562 leukemia
# M14 melanoma = system: M14 melanoma
# MCF7 breast = system: MCF7 breast
# SK-MEL-5 melanoma = system: SK-MEL-5 melanoma
# COLO 205 colon = system: COLO 205 colon
# CAKI-1 renal = system: CAKI-1 renal
# HCC-2998 colon = system: HCC-2998 colon
# UO-31 renal = system: UO-31 renal
# SW-620 colon = system: SW-620 colon
# UACC-62 melanoma = system: UACC-62 melanoma
# TK-10 renal = system: TK-10 renal
# CCRF-CEM leukemia = system: CCRF-CEM leukemia
# OVCAR-8 ovarian = system: OVCAR-8 ovarian
# SNB-75 CNS = system: SNB-75 CNS
# UACC-257 melanoma = system: UACC-257 melanoma
# IGROV1 ovarian = system: IGROV1 ovarian
# RPMI-8226 leukemia = system: RPMI-8226 leukemia
structure (smiles),measurement,setting,value
Cc1[nH]n(-c2ccccc2)c(=O)c1C(=O)c1ccccc1,GI50,HS 578T breast,> 25 µM
same,TGI,HS 578T breast,> 25 µM
same,GI50,SNB-19 CNS,> 15.7 µM
same,TGI,SNB-19 CNS,> 25 µM
same,GI50,SF-268 CNS,> 25 µM
same,TGI,SF-268 CNS,> 25 µM
same,GI50,OVCAR-3 ovarian,> 25 µM
same,TGI,OVCAR-3 ovarian,> 25 µM
same,GI50,OVCAR-4 ovarian,> 25 µM
same,TGI,OVCAR-4 ovarian,> 25 µM
same,GI50,A498 renal,> 6.04 µM
same,TGI,A498 renal,> 25 µM
same,GI50,MOLT-4 leukemia,> 25 µM
same,TGI,MOLT-4 leukemia,> 25 µM
same,GI50,HCT-15 colon,> 23.9 µM
same,TGI,HCT-15 colon,> 25 µM
same,GI50,LOX IMVI melanoma,> 25 µM
same,TGI,LOX IMVI melanoma,> 25 µM
same,GI50,A549 NSCLC,11.7 µM
same,TGI,A549 NSCLC,> 25 µM
same,GI50,786-0 renal,> 25 µM
same,TGI,786-0 renal,> 25 µM
same,GI50,HOP-92 NSCLC,> 10.6 µM
same,TGI,HOP-92 NSCLC,> 25 µM
same,GI50,SK-MEL-28 melanoma,> 25 µM
same,TGI,SK-MEL-28 melanoma,> 25 µM
same,GI50,HL-60(TB) leukemia,> 25 µM
same,TGI,HL-60(TB) leukemia,> 25 µM
same,GI50,T-47D breast,> 25 µM
same,TGI,T-47D breast,> 25 µM
same,GI50,SF-295 CNS,> 25 µM
same,TGI,SF-295 CNS,> 25 µM
same,GI50,SK-MEL-2 melanoma,> 25 µM
same,TGI,SK-MEL-2 melanoma,> 25 µM
same,GI50,MDA-MB-231 breast,> 25 µM
same,TGI,MDA-MB-231 breast,> 25 µM
same,GI50,NCI-H460 lung,> 19.5 µM
same,TGI,NCI-H460 lung,> 25 µM
same,GI50,DU-145 prostate,> 25 µM
same,TGI,DU-145 prostate,> 25 µM
same,GI50,NCI-H522 lung,> 25 µM
same,TGI,NCI-H522 lung,> 25 µM
same,GI50,MALME-3M melanoma,> 25 µM
same,TGI,MALME-3M melanoma,> 25 µM
same,GI50,SK-OV-3 ovarian,> 25 µM
same,TGI,SK-OV-3 ovarian,> 25 µM
same,GI50,MDA-MB-435,> 25 µM
same,TGI,MDA-MB-435,> 25 µM
same,GI50,NCI-H226 lung,> 25 µM
same,TGI,NCI-H226 lung,> 25 µM
same,GI50,HT29 colon,> 25 µM
same,TGI,HT29 colon,> 25 µM
same,GI50,SF-539 CNS,> 25 µM
same,TGI,SF-539 CNS,> 25 µM
same,GI50,NCI/ADR-RES ovarian,> 23.8 µM
same,TGI,NCI/ADR-RES ovarian,> 25 µM
same,GI50,SN12C renal,> 25 µM
same,TGI,SN12C renal,> 25 µM
same,GI50,RXF 393 renal,> 25 µM
same,TGI,RXF 393 renal,> 25 µM
same,GI50,KM12 colon,11.7 µM
same,TGI,KM12 colon,> 25 µM
same,GI50,HOP-62 NSCLC,> 25 µM
same,TGI,HOP-62 NSCLC,> 25 µM
same,GI50,SR leukemia,> 21 µM
same,TGI,SR leukemia,> 25 µM
same,GI50,PC-3 prostate,19.7 µM
same,TGI,PC-3 prostate,> 25 µM
same,GI50,BT-549 breast,> 25 µM
same,TGI,BT-549 breast,> 25 µM
same,GI50,NCI-H23 lung,> 25 µM
same,TGI,NCI-H23 lung,> 25 µM
same,GI50,ACHN renal,> 25 µM
same,TGI,ACHN renal,> 25 µM
same,GI50,OVCAR-5 ovarian,> 25 µM
same,TGI,OVCAR-5 ovarian,> 25 µM
same,GI50,U251 CNS,16.2 µM
same,TGI,U251 CNS,> 25 µM
same,GI50,HCT-116 colon,> 25 µM
same,TGI,HCT-116 colon,> 25 µM
same,GI50,K-562 leukemia,> 21.3 µM
same,TGI,K-562 leukemia,> 25 µM
same,GI50,M14 melanoma,> 25 µM
same,TGI,M14 melanoma,> 25 µM
same,GI50,MCF7 breast,> 25 µM
same,TGI,MCF7 breast,> 25 µM
same,GI50,SK-MEL-5 melanoma,> 25 µM
same,TGI,SK-MEL-5 melanoma,> 25 µM
same,GI50,COLO 205 colon,> 25 µM
same,TGI,COLO 205 colon,> 25 µM
same,GI50,CAKI-1 renal,> 25 µM
same,TGI,CAKI-1 renal,> 25 µM
same,GI50,HCC-2998 colon,> 25 µM
same,TGI,HCC-2998 colon,> 25 µM
same,GI50,UO-31 renal,> 25 µM
same,TGI,UO-31 renal,> 25 µM
same,GI50,SW-620 colon,> 25 µM
same,TGI,SW-620 colon,> 25 µM
same,GI50,UACC-62 melanoma,> 25 µM
same,TGI,UACC-62 melanoma,> 25 µM
same,GI50,TK-10 renal,> 25 µM
same,TGI,TK-10 renal,> 25 µM
same,GI50,CCRF-CEM leukemia,> 25 µM
same,TGI,CCRF-CEM leukemia,> 25 µM
same,GI50,OVCAR-8 ovarian,> 25 µM
same,TGI,OVCAR-8 ovarian,> 25 µM
same,GI50,SNB-75 CNS,> 25 µM
same,TGI,SNB-75 CNS,> 25 µM
same,GI50,UACC-257 melanoma,> 25 µM
same,TGI,UACC-257 melanoma,> 25 µM
same,GI50,IGROV1 ovarian,> 15.4 µM
same,TGI,IGROV1 ovarian,> 25 µM
same,GI50,RPMI-8226 leukemia,> 25 µM
same,TGI,RPMI-8226 leukemia,> 25 µM
